Laboratory results from US20260327250A1, “3-ETHYLAMINO-INDOLE DIMERS AS SEROTONERGIC AGENTS USEFUL FOR THE TREATMENT OF DISORDERS RELATED THERETO” (MINDSET PHARMA INC., priority 2022, published 2026).
Structures can show the parent of a compound that is named as a salt.

Experiments:
[1] = test system: brain's default mode network; details: humans, intravenous; cited from earlier work
[2] = target: T1, human 5-hydroxytryptamine receptor 1A (5-HT1A) (Homo sapiens, UniProt P08908); assay: Human 5-HT1A functional FLIPR assay (agonist mode); type: cell-based; details: footnote: Curve fitting with activation (%) @ 10 mM with RFU
T1 construct: expressed in transfected cells; host or cells: HTR1A&Ga15-CHO
T1 sequence (P08908 1-422): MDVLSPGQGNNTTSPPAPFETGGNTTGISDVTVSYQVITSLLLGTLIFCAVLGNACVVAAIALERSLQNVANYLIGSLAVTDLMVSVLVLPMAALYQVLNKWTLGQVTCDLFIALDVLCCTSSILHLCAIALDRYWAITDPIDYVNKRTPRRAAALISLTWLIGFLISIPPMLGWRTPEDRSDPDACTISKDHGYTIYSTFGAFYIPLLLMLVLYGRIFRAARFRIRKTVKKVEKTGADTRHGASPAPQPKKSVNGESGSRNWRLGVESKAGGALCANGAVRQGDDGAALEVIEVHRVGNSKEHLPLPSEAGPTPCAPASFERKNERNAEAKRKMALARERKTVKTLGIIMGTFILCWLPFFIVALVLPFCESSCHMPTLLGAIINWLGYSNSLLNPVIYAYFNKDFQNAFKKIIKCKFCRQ
Method: The potential excitatory effects of compounds targeting on 5-hydroxytryptamine receptor 1A under agonist mode was assessed.
HTR1A&Ga15-CHO cells were cultured in DMEM/F12 medium containing 10% dialyzed FBS, 1× penicillin-streptomycin and 600 μg/mL Hygromycin B. The cells were passaged about three times a week, maintained between […] confluence.
• 1. The cell culture medium (DMEM/F12 medium containing 10% dialyzed FBS, 1× penicillin-streptomycin and 600 μg/mL Hygromycin B), TrypLE™ Express and DPBS was warmed to R.T. in advance. • 2. The cell culture medium was removed from the flask. The cells were washed with DPBS. • 3. 1 mL TrypLE™ Express was added to the flask, mixed well by gentle shaking and then cells were incubated at 37° C. for a few minutes. • 4. The cells morphological change was checked under microscope, and the digestion stopped by adding 2 mL cell culture medium to the flask when most of cells turned to round. • 5. The cell suspension was transferred into a 15 mL centrifuge tube, and then centrifuged at 1,200 rpm for 5 minutes. • 6. The supernatant was removed. The cell pellet was resuspended with 2 mL cell culture medium. • 7. The cell density was counted using cell counter. Only cells with >85% viability were used for the assay. • 8. The cells were diluted to 4×10^5/mL with cell culture medium. • 9. 30 μL/well cell suspensions were added into a 384-well cell plate (The cell density was 12,000 cells/well). • 10. The cell plate was incubated overnight at 37° C., 5% (v/v) CO2. 3.3 Cell handling • 1. On the day of experiments, culture medium was removed from the cell plate. • 2. 10 μL of assay buffer (20 mM HEPES, in 1× HBSS, pH 7.4) was added to each well of the cell plate. • 3. 2× dye solution was prepared following the manufacture's instruction of the FLIPR® Calcium 6 assay kit: • i. The dye was diluted with assay buffer. • ii. Probenecid was added to the final concentration of 5 mM. • iii. Vigorously vortex for 1-2 minutes, and pH was adjusted to 7.4. • 4. 10 μL of 2× dye solution was added to each well of the cell plate. • 5. The cell plate was placed on plate shaker, followed by shaking at 600 rpm for 2 minutes. • 6. The plate at 37° C. was incubated for 2 hours followed by an additional 15-minute incubation at 25° C.
• 1. Serotonin was prepared to the concentration of 10 mM with DMSO, 3-folds serial dilutions were performed with DMSO. • 2. The test compounds were prepared to the concentration of 10 mM with DMSO, 3-folds serial dilutions were performed with DMSO. • 3. The compounds were added to a 384-well compound source plate. • 4. 90 nL/well of serial diluted compounds were transferred from source plate to a 384-well compound plate by using an Echo. • 5. 30 μL/well of assay buffer was added to the compound plate. • 6. The plate-on-plate shaker was mixed for 2 minutes.
• 1. After the cells had incubated with dye solution, the cell plate, compound plate containing 3×compounds and FLIPR tips were placed into FLIPR. • 2. 10 μL of 3×compounds were transferred from the compound plate to the cell plate by FLIPR. • 3. The plate was read for 160 sec with 1 sec interval to obtain the data of agonist mode.
• 1. The normalized fluorescence reading (RFU) was calculated as shown below, wherein Fmax and Fmin stand for maximum and minimum of calcium signal during defined time window:
2. EC50 was calculated by fitting RFU against log of compound concentrations with Hill equation using XLfit.

[3] = test system: 5-HT2A; details: rats, 5-HT2A or 5-HT1A antagonists; cited from earlier work
[4] = Mouse plasma stability; details: for Remaining Percentage: mouse plasma, 0 min
Method: (§1) The stock solution of test compound was prepared in DMSO and diluted at the final concentration of 200 μM.
(§2) • a. 2.5 μL of 200 μM or 1 mM test compound or control compound solution was spiked to 497.5 μL plasma to reach a final concentration of 1 μM or 5 μM. The final concentration of organic solvents was 0.5%. The assay was performed in duplicated. • b. The reaction samples were incubated at 37° C. at approximately 60 rpm in a water bath. • c. Aliquots of 50 μL were taken from the reaction samples at 0, 30, 60, 120, 180 and 240 minutes. The reaction was stopped by the addition of 7 volumes of cold acetonitrile containing internal standards (IS: 100 nM alprazolam, 200 nM imipramine, 200 nM labetalol and 2 μM ketoprofen). • d. All samples were vortexed for 2 minutes, followed by centrifugation at 3,220 g for 30 minutes to precipitate proteins. 100 μL of the supernatant was transferred to a new plate. The supernatant was diluted with ultrapure water according to the LC-MS signal response and peak shape.
(§3) Samples were Analyzed by LC-MS/MS. • LC system: Shimadzu • MS analysis: Triple Quad™ 6500+ from AB Inc (Canada) with an ESI interface • Column temperature: 40° C. • Column: Xselect® Hss T3 2.5μ (2.1×30 mm) coupled with preguard column • Mobile phase: 0.1% formic acid in water (A) and 0.1% formic acid in acetonitrile (B)
(§4) All calculations were carried out using Microsoft Excel. Remaining percentages of parent compounds at each time point were estimated by determining the peak area ratios from extracted ion chromatograms.

[5] = in vitro; details: mouse, microsomes
Method: The concentrations of parent compounds in reaction systems were evaluated by LC-MS/MS for estimating the stability in pooled human, male rat and male mouse liver microsomes. The in vitro intrinsic clearances of test compounds were determined as well. Protocol
A master solution in the “Incubation Plate” containing phosphate buffer, ultra-pure H2O, MgCl2 solution and liver microsomes was made according to Table 6. The mixture was pre-warmed at 37° C. water bath for 5 minutes.
The reaction was started with the addition of 4 μL of 200 μM exemplary test compounds of the application or control compounds to each master solution to get the final concentration of 2 μM. This study was performed in duplicate.
Aliquots of 50 μL were taken from the reaction solution at 0, 15, 30, 45 and 60 minutes. The reaction solutions were stopped by the addition of 4 volumes of cold methanol with IS (100 nM alprazolam, 200 nM imipramine, 200 nM labetalol and 2 μM ketoprofen). Samples were centrifuged at 3,220 g for 40 minutes. Aliquot of 90 μL of the supernatant was mixed with 90 μL of ultra-pure H2O and then was used for LC-MS/MS analysis.
All calculations were carried out using Microsoft Excel. Peak area ratios of test compound to internal standard (listed in the below table) were determined from extracted ion chromatograms.
All calculations were carried out using Microsoft Excel. Peak areas were determined from extracted ion chromatograms. The slope value, k, was determined by linear regression of the natural logarithm of the remaining percentage of the parent drug vs. incubation time curve.
The in vitro half-life (in vitro t½) was determined from the slope value:
Conversion of the in vitro t½ (min) into the in vitro intrinsic clearance (in vitro CLint, in μL/min/mg proteins) was done using the following equation (mean of duplicate determinations):

[6] = Intestinal mucosal permeation using Caco-2 cell monolayers; details: human
Method: (§5) The Caco-2 cell culture medium was prepared consisting of Dulbecco's Modified Eagle's Medium (DMEM) with high glucose and L-glutamine supplemented with 10% FBS, 1× penicillin-streptomycin mixture and 1× non-essential amino acids (NEAA). • 2. The 50 μL of culture medium was added to each well of the Transwell insert. Transwell insert was removed from reservoir and 25 mL of culture medium was added. • 3. Incubated at 37° C., 5% CO2 for 1 hour. Plates were ready for cell seeding. • 4. The cells were cultivated in T-75 flasks in a cell culture incubator set at 37° C., 5% CO2, 95% relative humidity. The cells were allowed to reach 80-90% confluence before detaching and splitting. • 5. The cultivated cells were rinsed in T-75 flasks with 5 mL PBS. Aspirated off, 1.5 mL trypsin/EDTA was added, and incubated at 37° C. for approximately 5 to 10 minutes or until the cells detach and float. Trypsin/EDTA was inactivated by adding excess serum containing medium. • 6. The cell suspension was moved to a conical tube and cells were pelleted by centrifugation at 120×g for 10 minutes. • 7. The cells were resuspended in seeding medium at a density of 6.86×10^5 cells/mL. This cell concentration can be used to seed 2.40×10^5 cells/cm^2. […] Seeding and Feeding of Caco-2 Cells in Transwell Plates • 1. 50 μL of above cell suspension was added to each well of a previously prepared Transwell plate. • 2. The plate was incubated for 14-18 days. The medium was replaced every other day, beginning no sooner than 48 hours after initial plating. • 3. The procedure for medium changes was as follows. The plate was removed from incubator and placed in hood. The medium was aspirated from reservoir and each Transwell insert. 75 μL of culture medium was added to each well of Transwell inserts and 25 mL of culture medium was added to reservoir tray. The plate was returned to incubator.
(§6) When the 14-day Caco-2 cultured cells have reached confluence and are differentiated, they were ready to be used for transport studies. • 2. The medium was removed from reservoir and Transwell inserts. • 3. 75 μL of pre-warmed culture medium was added to each transwell insert and 25 mL of reservoir tray. • 4. The electrical resistance across the monolayer was measured using automated tissue resistance measuring system (World Precision Instruments, Sarasota, FL). • 5. The electrical resistance was recorded for each well. • 6. Once all wells were measured, the plate was returned to incubator. • 7. TEER of each well was calculated by the equation below. The TEER value of each well should be greater than 230 ohms-cm^2. TEER measurement (ohms)×Area of membrane (cm^2)=TEER value (ohm-cm^2)
(§7) The Caco-2 plate was removed from the incubator. Next, the monolayer was washed, and the volume exchanged two times using pre-warmed HBSS (10 mM HEPES, pH 7.4). Then the plate was incubated for 30 minutes at 37° C. • 1 mM stock solutions of control compounds and test compound(s) were prepared in DMSO and diluted with HBSS (10 mM HEPES, pH 7.4) to reach the final concentration of 5 μM. The final concentration of DMSO in the incubation system was 0.5%. Digoxin, prazosin and propranolol were used as control compounds in this assay. • 3. HBSS (10 mM HEPES, pH 7.4) was removed after 30 minutes pre-incubation. • 4. The rate of drug transport was incubated in the apical to basolateral direction. 75 μL of the control compounds and test compound was added to the Transwell insert (apical compartment). The wells were filled in the receiver plate (basolateral compartment) with 235 μL of HBSS (10 mM HEPES, pH 7.4). • 5. The rate of drug transport was determined in the basolateral to apical direction. 235 μL of the control compounds and test compound(s) was added to the receiver plate wells (basolateral compartment). The Transwell insert (apical compartment) was filled with 75 μL of HBSS (10 mM HEPES, pH 7.4). • 6. […] Incubated at 37° C. for 2 hours. • 8.

[7] = Dog plasma stability; details: for Remaining Percentage: dog plasma, 0 min
Method: as §1, §2, §3, §4

[8] = Human plasma stability; details: for Remaining Percentage: human plasma, 0 min
Method: as §1, §2, §3, §4

[9] = Rat plasma stability; details: for Remaining Percentage: rat plasma, 0 min
Method: as §1, §2, §3, §4

[10] = Human, rat and mouse liver microsomes stability (overall conclusion); type: in vitro ADME; details: 60-minute time period
Method: This study was performed in duplicate.
All calculations were carried out using Microsoft Excel.
All calculations were carried out using Microsoft Excel. Peak areas were determined from extracted ion chromatograms.

[11] = in vitro; details: human
Method: as §5, §6, §7

[12] = in vitro; details: dog, plasma
Method: as §1, §2, §3, §4

[13] = Caco-2, pH 7.4, Percentage recovery A→B, apical to basolateral
[14] = Caco-2, pH 7.4, Percentage recovery B→A, basolateral to apical

For `CN(C)CCc1c[nH]c2cccc(OP(=O)(O)O)c12` [Psilocybin], the oscillatory power [1] is listed as “decreases in oscillatory power in areas of the brain's default mode network”, the “RFU@10 μM” value [2] is listed as 143 RFU and the drug discrimination [3] is listed as 5-HT2A antagonists, but not 5-HT1A antagonists, prevented rats from recognizing psilocybin.

For `CC(C)N(CCc1c[nH]c2cccc(O)c12)C(C)C` [Compound 7], the “RFU@10 μM” value [2] was 74 RFU.

With `CC(C)N(CCc1c[nH]c2cccc(OC(=O)CCCC(=O)Oc3cccc4[nH]cc(CCN(C(C)C)C(C)C)c34)c12)C(C)C` [Compound I-37, Bis(3-(2-(diisopropylamino)ethyl)-1H-indol-4-yl) glutarate dihydrochloride] the “Remaining Percentage” value [4] was 100.00%, the remaining at 0.5 h ([4]; mouse, plasma) was 0% and the remaining at 1 h ([4]; mouse, plasma) was 0%. For the same compound, the remaining at 2 h ([4]; mouse, plasma) was 0%, the remaining at 3 h ([4]; mouse, plasma) was 0% and the remaining at 4 h ([4]; mouse, plasma) was 0%. For the same compound, the “RFU@10 μM” value [2] was 62 RFU, the half-life at 2 µM [5] was less than 4.51 min and the microsomal CLint at 2 µM [5] was greater than 307 µL/min/mg. It also gave a remaining at 1 h, 2 µM [5] of 0%, a Papp A→B at 2 h, 5 µM ([6]; Caco-2, pH 7.4) of 0.54 ×10⁻⁶ cm/s and a Papp B→A at 2 h, 5 µM ([6]; Caco-2, pH 7.4) of 11.3 ×10⁻⁶ cm/s. For the same compound, the efflux ratio at 2 h, 5 µM ([6]; Caco-2, pH 7.4) was 21, the recovery at 2 h, 5 µM [6, 13] was 74.9% and the recovery at 2 h, 5 µM [6, 14] was 107%. For the same compound, the “Remaining Percentage” value [7] was 100.00%, the half-life ([7]; dog, plasma) was 115 min and the remaining at 0.5 h ([7]; dog, plasma) was 82.6%. For the same compound, the remaining at 1 h ([7]; dog, plasma) was 70.5%, the remaining at 2 h ([7]; dog, plasma) was 50.5% and the remaining at 3 h ([7]; dog, plasma) was 31.6%. The remaining at 4 h ([7]; dog, plasma) was 24.2%, the “Remaining Percentage” value [8] was 100.00% and the remaining at 0.5 h ([8]; human, plasma) was 0%. It also gave a remaining at 1 h ([8]; human, plasma) of 0%, a remaining at 2 h ([8]; human, plasma) of 0% and a remaining at 3 h ([8]; human, plasma) of 0%. The remaining at 4 h ([8]; human, plasma) was 0%, the “Remaining Percentage” value [9] was 100.00% and the remaining at 0.5 h ([9]; rat, plasma) was 0%. For the same compound, the remaining at 1 h ([9]; rat, plasma) was 0%, the remaining at 2 h ([9]; rat, plasma) was 0% and the remaining at 3 h ([9]; rat, plasma) was 0%. The remaining at 4 h ([9]; rat, plasma) was 0% and the “metabolic stability (conclusion)” value [10] was “rapidly metabolized”.

For `CN(C)CCc1c[nH]c2cccc(O)c12` [Psilocin, 4-hydroxy-N,N-dimethyltryptamine, reference compound], the Papp A→B at 2 h, 5 µM ([11]; Caco-2, pH 7.4) was 24.6 ×10⁻⁶ cm/s, the Papp B→A at 2 h, 5 µM ([11]; Caco-2, pH 7.4) was 18.7 ×10⁻⁶ cm/s and the “RFU@10 μM” value [2] was 140 RFU. The remaining at 1 h, 2 µM [5] was 96.9%.

For `CN(C)CCc1c[nH]c2cccc(OC(=O)CCCC(=O)Oc3cccc4[nH]cc(CCN(C)C)c34)c12` [Compound I-24, Bis(3-(2-(dimethylamino)ethyl)-1H-indol-4-yl) glutarate], the “Remaining Percentage” value [4] was 100.00%, the Papp A→B at 2 h, 5 µM ([11]; Caco-2, pH 7.4) was 0.27 ×10⁻⁶ cm/s and the Papp B→A at 2 h, 5 µM ([11]; Caco-2, pH 7.4) was 2.47 ×10⁻⁶ cm/s. It also gave an efflux ratio at 2 h, 5 µM ([11]; Caco-2, pH 7.4) of 9.16, a recovery at 2 h, 5 µM [11, 13] of 112% and a recovery at 2 h, 5 µM [11, 14] of 105%. For the same compound, the half-life [12] was 19 min, the remaining at 0.5 h [12] was 32.9% and the remaining at 1 h [12] was 11.2%. It also gave a remaining at 2 h [12] of 0%, a remaining at 3 h [12] of 0% and a remaining at 4 h [12] of 0%. The “RFU@10 μM” value [2] was 169 RFU, the half-life at 2 µM [5] was less than 4.51 min and the microsomal CLint at 2 µM [5] was greater than 307 µL/min/mg. The remaining at 1 h, 2 µM [5] was 0%, the “Remaining Percentage” value [7] was 100.00% and the “Remaining Percentage” value [8] was 100.00%. The “Remaining Percentage” value [9] was 100.00% and the “metabolic stability (conclusion)” value [10] was “rapidly metabolized”.
